Test results published in PubChem BioAssay (NCI).
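How tested: cells in 96-well plates exposed to compound for 48 hours at five concentrations. GI50 marks 50% less growth. TGI: total growth inhibition.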

Key:
Test in all cases: NCI-60 cell line screen, 48 h
[1] = test system: COLO 205 colon
[2] = test system: BT-549 breast
[3] = test system: PC-3 prostate
[4] = test system: RPMI-8226 leukemia
[5] = test system: NCI-H460 lung
[6] = test system: MALME-3M melanoma
[7] = test system: T-47D breast
[8] = test system: SK-MEL-28 melanoma
[9] = test system: SK-MEL-5 melanoma
[10] = test system: HCT-15 colon
[11] = test system: SW-620 colon
[12] = test system: MOLT-4 leukemia
[13] = test system: NCI-H226 lung
[14] = test system: LOX IMVI melanoma
[15] = test system: SR leukemia
[16] = test system: SK-MEL-2 melanoma
[17] = test system: TK-10 renal
[18] = test system: SF-295 CNS
[19] = test system: K-562 leukemia
[20] = test system: HS 578T breast
[21] = test system: IGROV1 ovarian
[22] = test system: HOP-62 NSCLC
[23] = test system: NCI-H522 lung
[24] = test system: UACC-257 melanoma
[25] = test system: ACHN renal
[26] = test system: UACC-62 melanoma
[27] = test system: RXF 393 renal
[28] = test system: MDA-MB-231 breast
[29] = test system: CCRF-CEM leukemia
[30] = test system: M14 melanoma
[31] = test system: HT29 colon
[32] = test system: OVCAR-3 ovarian
[33] = test system: MCF7 breast
[34] = test system: SF-539 CNS
[35] = test system: MDA-MB-468 breast
[36] = test system: 786-0 renal
[37] = test system: A498 renal
[38] = test system: HCT-116 colon
[39] = test system: A549 NSCLC
[40] = test system: HL-60(TB) leukemia
[41] = test system: U251 CNS
[42] = test system: OVCAR-8 ovarian
[43] = test system: SNB-19 CNS
[44] = test system: NCI-H23 lung
[45] = test system: DU-145 prostate
[46] = test system: SF-268 CNS
[47] = test system: OVCAR-4 ovarian
[48] = test system: SNB-75 CNS
[49] = test system: SN12C renal
[50] = test system: OVCAR-5 ovarian
[51] = test system: HOP-92 NSCLC
[52] = test system: CAKI-1 renal
[53] = test system: KM12 colon
[54] = test system: MDA-MB-435
[55] = test system: SK-OV-3 ovarian
[56] = test system: UO-31 renal
[57] = test system: EKVX NSCLC
[58] = test system: HCC-2998 colon

Compound: C=C1CC[C@@H]2[C@]3(C)COC(c4cn[nH]c4-c4ccccc4)O[C@@H]3CC[C@@]2(C)[C@@H]1C/C=C1/C(=O)OCC1O (stereo partly specified)
- GI50 [1]: 15 µM
- TGI [1]: 28.2 µM
- GI50 [2]: 15.2 µM
- TGI [2]: 43.3 µM
- GI50 [3]: 12.2 µM
- TGI [3]: > 100 µM
- GI50 [4]: 8.39 µM
- TGI [4]: 93.8 µM
- GI50 [5]: 15.3 µM
- TGI [5]: 32.3 µM
- GI50 [6]: 13.2 µM
- TGI [6]: 30.5 µM
- GI50 [7]: 20.2 µM
- TGI [7]: > 100 µM
- GI50 [8]: 13.7 µM
- TGI [8]: 26.8 µM
- GI50 [9]: 12.4 µM
- TGI [9]: 24.8 µM
- GI50 [10]: 13.2 µM
- TGI [10]: 27.2 µM
- GI50 [11]: 14.4 µM
- TGI [11]: 33.3 µM
- GI50 [12]: 3.83 µM
- TGI [12]: 54.5 µM
- GI50 [13]: 16.1 µM
- TGI [13]: 37.8 µM
- GI50 [14]: 10.9 µM
- TGI [14]: 25 µM
- GI50 [15]: 21.2 µM
- TGI [15]: > 100 µM
- GI50 [16]: 14.8 µM
- TGI [16]: 28.7 µM
- GI50 [17]: 20.2 µM
- TGI [17]: 51.7 µM
- GI50 [18]: 15.4 µM
- TGI [18]: 30.5 µM
- GI50 [19]: 12.8 µM
- TGI [19]: > 100 µM
- GI50 [20]: 9.81 µM
- TGI [20]: 54.7 µM
- GI50 [21]: 17 µM
- TGI [21]: 42.8 µM
- GI50 [22]: 16.1 µM
- TGI [22]: 35.6 µM
- GI50 [23]: 14.1 µM
- TGI [23]: 29.8 µM
- GI50 [24]: 15.6 µM
- TGI [24]: 36.1 µM
- GI50 [25]: 17.6 µM
- TGI [25]: 69.1 µM
- GI50 [26]: 13.5 µM
- TGI [26]: 28.7 µM
- GI50 [27]: 8.5 µM
- TGI [27]: 21.7 µM
- GI50 [28]: 15.8 µM
- TGI [28]: 32.8 µM
- GI50 [29]: 4.83 µM
- TGI [29]: 42.5 µM
- GI50 [30]: 14.4 µM
- TGI [30]: 28.2 µM
- GI50 [31]: 15.4 µM
- TGI [31]: 32.7 µM
- GI50 [32]: 11.1 µM
- TGI [32]: 37.5 µM
- GI50 [33]: 10.5 µM
- TGI [33]: 34.9 µM
- GI50 [34]: 15.6 µM
- TGI [34]: 30.3 µM
- GI50 [35]: 9 µM
- TGI [35]: 32.6 µM
- GI50 [36]: 18.8 µM
- TGI [36]: 43 µM
- GI50 [37]: 30.9 µM
- TGI [37]: > 100 µM
- GI50 [38]: 12.2 µM
- TGI [38]: 32.2 µM
- GI50 [39]: 17.3 µM
- TGI [39]: 51.8 µM
- GI50 [40]: 13.3 µM
- TGI [40]: 67.5 µM
- GI50 [41]: 14.3 µM
- TGI [41]: 28.6 µM
- GI50 [42]: 18 µM
- TGI [42]: 49.6 µM
- GI50 [43]: 15 µM
- TGI [43]: 28.5 µM
- GI50 [44]: 13.6 µM
- TGI [44]: 26.5 µM
- GI50 [45]: 13.8 µM
- TGI [45]: 35.4 µM
- GI50 [46]: 18.5 µM
- TGI [46]: 75.4 µM
- GI50 [47]: 15.2 µM
- TGI [47]: 52 µM
- GI50 [48]: 10.4 µM
- TGI [48]: 35.1 µM
- GI50 [49]: 22 µM
- TGI [49]: 70 µM
- GI50 [50]: 19.2 µM
- TGI [50]: 37.7 µM
- GI50 [51]: 9.14 µM
- TGI [51]: 30.6 µM
- GI50 [52]: 11.6 µM
- TGI [52]: 32.2 µM
- GI50 [53]: 11.3 µM
- TGI [53]: 54.9 µM
- GI50 [54]: 13.5 µM
- TGI [54]: 29.8 µM
- GI50 [55]: 22 µM
- TGI [55]: 63.5 µM
- GI50 [56]: 11.5 µM
- TGI [56]: 28 µM
- GI50 [57]: 14.5 µM
- TGI [57]: 32.7 µM
- GI50 [58]: 15.8 µM
- TGI [58]: 29.3 µM
